Measured values taken from ChEMBL document CHEMBL1201862, “PubChem BioAssay data set” (2004).
Counter-ions that a name gives are not always drawn. Active and inactive are the calls of the source.

How the values were obtained:
[1] = target: T1, Corticotropin-releasing factor receptor 2/Corticotropin-releasing factor-binding protein (Homo sapiens, UniProt P24387+Q13324); experiment: Dose Response confirmation of uHTS hits for small molecule antagonists of the CRF-binding protein and CRF-R2 receptor complex.; assay type: functional; conditions: read-out: IC50_Mean
T1 sequence (Q13324 whole entry): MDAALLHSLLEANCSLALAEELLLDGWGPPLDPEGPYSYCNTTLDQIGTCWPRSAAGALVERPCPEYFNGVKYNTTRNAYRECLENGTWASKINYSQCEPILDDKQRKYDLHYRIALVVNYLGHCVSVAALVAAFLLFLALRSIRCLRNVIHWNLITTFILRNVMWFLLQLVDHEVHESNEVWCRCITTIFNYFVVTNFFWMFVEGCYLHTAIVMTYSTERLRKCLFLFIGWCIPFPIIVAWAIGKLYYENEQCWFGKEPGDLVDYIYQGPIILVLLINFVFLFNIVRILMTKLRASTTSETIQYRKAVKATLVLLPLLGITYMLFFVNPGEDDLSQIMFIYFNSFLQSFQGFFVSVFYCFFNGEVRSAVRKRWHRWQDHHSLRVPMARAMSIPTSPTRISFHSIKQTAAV
T1 sequence (P24387 whole entry): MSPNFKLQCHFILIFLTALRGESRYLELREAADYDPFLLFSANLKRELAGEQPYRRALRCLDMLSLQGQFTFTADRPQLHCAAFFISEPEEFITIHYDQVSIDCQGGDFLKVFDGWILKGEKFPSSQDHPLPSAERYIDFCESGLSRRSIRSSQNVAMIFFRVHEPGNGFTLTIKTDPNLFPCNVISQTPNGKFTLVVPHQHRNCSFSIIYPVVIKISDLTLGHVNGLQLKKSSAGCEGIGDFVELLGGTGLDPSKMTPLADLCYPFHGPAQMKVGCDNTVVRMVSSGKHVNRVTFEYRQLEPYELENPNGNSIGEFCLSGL

[2] = CRF-BP/CRF-R2 complex antagonists, dose response, cell-based, uHTS hits, 384-well (AID 651639); assay type: functional, Homo sapiens; conditions: read-out: IC50_Mean
[3] = target: T1, Corticotropin-releasing factor receptor 2/Corticotropin-releasing factor-binding protein; experiment: activators of CRF receptor 2 with binding protein – uHTS hits, confirmation (AID 602473); assay type: functional; conditions: read-out: EC50_Mean
[4] = inhibitors of SNCA 5'UTR-driven reporter translation, confirmation, H4 neuroglioma cells, luminescence (AID 1988); assay type: functional, cell-based
[5] = Luminescence Cell-Based Dose Response HTS to Identify Inhibitors of 5'UTR Stem-Loop Driven Prion Protein mRNA Translation in H4 Neuroglioblastoma Cells. [Related pubchem assays: 1827 (Project Summary), 1813 (Primary HTS)]; assay type: functional
[6] = cells; assay type: functional, cell-based
[7] = target: T2, Nuclear receptor subfamily 0 group B member 1 (Homo sapiens, UniProt P51843); assay type: functional, cell-based;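 further: HEK293T cells transfected with SF-1 and DAX-1 plus StAR promoter luciferase reporter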
T2 sequence (P51843 whole entry): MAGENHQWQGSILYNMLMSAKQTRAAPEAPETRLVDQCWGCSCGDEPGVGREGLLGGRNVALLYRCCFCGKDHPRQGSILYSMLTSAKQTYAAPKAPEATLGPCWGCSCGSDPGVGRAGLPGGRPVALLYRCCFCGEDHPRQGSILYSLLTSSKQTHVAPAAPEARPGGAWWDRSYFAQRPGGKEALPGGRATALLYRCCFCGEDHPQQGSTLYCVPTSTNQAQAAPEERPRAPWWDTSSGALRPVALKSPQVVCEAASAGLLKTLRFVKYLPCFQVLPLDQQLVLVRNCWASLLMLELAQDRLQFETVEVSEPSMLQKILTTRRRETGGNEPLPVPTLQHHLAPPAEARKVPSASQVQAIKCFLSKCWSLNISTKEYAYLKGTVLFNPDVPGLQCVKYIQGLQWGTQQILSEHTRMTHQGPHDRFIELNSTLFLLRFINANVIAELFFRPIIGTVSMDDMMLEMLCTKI

[8] = target: T3, Sentrin-specific protease 8 (Homo sapiens, UniProt Q96LD8); assay type: functional
T3 sequence (Q96LD8 whole entry): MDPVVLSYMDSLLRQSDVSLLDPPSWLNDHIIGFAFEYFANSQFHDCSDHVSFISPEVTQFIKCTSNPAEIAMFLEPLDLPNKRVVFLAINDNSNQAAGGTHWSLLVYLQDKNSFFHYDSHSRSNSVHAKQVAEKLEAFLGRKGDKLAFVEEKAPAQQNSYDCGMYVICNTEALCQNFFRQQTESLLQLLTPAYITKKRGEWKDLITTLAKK

[9] = target: T3, Sentrin-specific protease 8; assay type: functional; remark: listed apart in the source
[10] = target: T4, Mannose-6-phosphate isomerase (Homo sapiens, UniProt P34949); experiment: human PMI inhibitors, high substrate, primary screen, biochemical, fluorescence intensity, high mannose 6-phosphate (AID 1220)
T4 sequence (P34949 whole entry): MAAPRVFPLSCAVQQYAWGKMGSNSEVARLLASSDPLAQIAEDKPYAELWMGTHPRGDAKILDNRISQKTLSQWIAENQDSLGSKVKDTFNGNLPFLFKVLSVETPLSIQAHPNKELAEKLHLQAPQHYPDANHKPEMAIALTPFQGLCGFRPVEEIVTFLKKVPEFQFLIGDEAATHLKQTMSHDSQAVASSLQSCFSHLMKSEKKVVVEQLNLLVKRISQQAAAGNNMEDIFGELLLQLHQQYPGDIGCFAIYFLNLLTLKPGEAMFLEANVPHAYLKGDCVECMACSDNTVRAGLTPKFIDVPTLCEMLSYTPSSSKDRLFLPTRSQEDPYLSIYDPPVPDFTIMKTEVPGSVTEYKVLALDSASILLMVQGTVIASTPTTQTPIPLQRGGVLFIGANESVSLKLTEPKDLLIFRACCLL

[11] = system: Escherichia coli; experiment: microbe, parasite or virus in culture
[12] = system: Escherichia coli; experiment: microbe, parasite or virus in culture; remark: listed apart in the source
[13] = ARNT/TACC3 interaction disruptors, potency, confirmation, biochemical, AlphaScreen, cherry-picked samples (AID 651703); assay type: functional, Homo sapiens;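 further: His-tagged ARNT PAS-B domain paired with GST-TACC3 E629A dimer coactivator fragment; potency of inhibitors that break up the complex and lower AlphaScreen signal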
[14] = system: Streptococcus; experiment: Group A Streptococcus viability loss, dose response, counter-screen for streptokinase expression inhibitor project, luminescence, BacTiterGlo (AID 1915); assay type: functional, organism-based;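 further: potency for reduction of bacterial viability or growth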
[15] = system: Streptococcus sp. 'group A'; experiment: growth inhibition of control SK(-) GAS strain, dose response, counter-screen for streptokinase expression inhibitor project, luminescence, kanamycin, BacTiterGlo, confirmation (AID 1900); assay type: functional, organism-based
[16] = target: T5, Zinc finger protein mex-5 (Caenorhabditis elegans, UniProt Q9XUB2); experiment: MEX-5/TCR-2 RNA interaction inhibitors, dose response, biochemical, C. elegans, fluorescence polarization (AID 1960)
T5 sequence (Q9XUB2 whole entry): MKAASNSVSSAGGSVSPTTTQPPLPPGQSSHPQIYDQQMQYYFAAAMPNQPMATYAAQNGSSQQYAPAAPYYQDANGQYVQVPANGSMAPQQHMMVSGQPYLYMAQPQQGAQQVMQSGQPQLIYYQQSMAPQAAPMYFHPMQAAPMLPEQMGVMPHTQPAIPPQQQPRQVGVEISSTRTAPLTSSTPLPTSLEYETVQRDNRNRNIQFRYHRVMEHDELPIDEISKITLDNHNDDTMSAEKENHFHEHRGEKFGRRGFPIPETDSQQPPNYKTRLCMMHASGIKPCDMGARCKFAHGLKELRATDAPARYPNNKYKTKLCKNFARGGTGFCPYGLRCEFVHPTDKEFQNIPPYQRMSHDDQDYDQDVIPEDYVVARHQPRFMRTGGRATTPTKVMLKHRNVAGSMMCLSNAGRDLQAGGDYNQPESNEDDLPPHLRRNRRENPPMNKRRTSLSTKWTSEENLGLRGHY

[17] = target: T6, RNA-binding protein pos-1 (Caenorhabditis elegans, UniProt G5EF15); experiment: inhibitors of POS-1/mex-3 RNA binding, dose response, biochemical, fluorescence polarization (AID 1964);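 further: purified POS-1 fused to maltose binding protein made in E. coli; potency of compounds blocking POS-1 binding to fluorescent RNA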
T6 sequence (G5EF15 whole entry): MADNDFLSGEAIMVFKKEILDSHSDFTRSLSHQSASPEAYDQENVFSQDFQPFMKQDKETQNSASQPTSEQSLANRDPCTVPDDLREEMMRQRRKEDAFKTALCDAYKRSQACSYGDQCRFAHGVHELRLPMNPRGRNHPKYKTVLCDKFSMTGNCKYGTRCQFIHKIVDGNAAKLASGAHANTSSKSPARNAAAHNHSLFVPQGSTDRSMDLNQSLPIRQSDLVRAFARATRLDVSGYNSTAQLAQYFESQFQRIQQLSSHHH

[18] = target: ADP-ribosylation factor GTPase-activating protein 1 (Rattus norvegicus, UniProt Q62848); experiment: Fluorescence polarization-based biochemical high throughput dose response screening assay to identify inhibitors of ADP-ribosylation factor GTPase activating protein 1 (ARFGAP1).; assay type: functional
[19] = growth suppression of PTEN-null colon cells, dose response, cell-based, HCT116 PTEN knockout (AID 1047); assay type: functional;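 further: HCT116 colon tumor cells with PTEN knocked out; cells exposed to compound for 60 hours before readout; potency for loss of cell viability measured by luminescence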
[20] = growth suppression of beta-catenin-knockout colon cells, dose response, cell-based, HCT116, human colon tumor (AID 1045); assay type: functional;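 further: HCT116 colon tumor cells with beta catenin knocked out; cells exposed to compound for 60 hours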
[21] = target: Arf-GAP with SH3 domain, ANK repeat and PH domain-containing protein 1 (Homo sapiens, UniProt Q9ULH1); assay type: functional;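 further: biochemical fluorescence polarization dose–response screen measuring inhibition of ASAP1; ASAP1 GAP domain stimulating GTP hydrolysis by truncated human ARF1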
[22] = Luminescence Cell-Based Dose Retest to Confirm Inhibitors of Cancer Stem Cells. [Related pubchem assays (depositor defined):AID2717, AID2721]; assay type: functional; conditions: Homo sapiens
[23] = target: T7, Streptokinase A (Streptococcus pyogenes serotype M1, UniProt P10520); experiment: S. pyogenes streptokinase expression inhibitors, potency, dose response, plasminogen activation absorbance, OD405 (AID 1914); assay type: functional, Streptococcus pyogenes M1 GAS;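 further: secreted streptokinase activity via plasminogen activation per viability signal from cell pellet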
T7 sequence (P10520 whole entry): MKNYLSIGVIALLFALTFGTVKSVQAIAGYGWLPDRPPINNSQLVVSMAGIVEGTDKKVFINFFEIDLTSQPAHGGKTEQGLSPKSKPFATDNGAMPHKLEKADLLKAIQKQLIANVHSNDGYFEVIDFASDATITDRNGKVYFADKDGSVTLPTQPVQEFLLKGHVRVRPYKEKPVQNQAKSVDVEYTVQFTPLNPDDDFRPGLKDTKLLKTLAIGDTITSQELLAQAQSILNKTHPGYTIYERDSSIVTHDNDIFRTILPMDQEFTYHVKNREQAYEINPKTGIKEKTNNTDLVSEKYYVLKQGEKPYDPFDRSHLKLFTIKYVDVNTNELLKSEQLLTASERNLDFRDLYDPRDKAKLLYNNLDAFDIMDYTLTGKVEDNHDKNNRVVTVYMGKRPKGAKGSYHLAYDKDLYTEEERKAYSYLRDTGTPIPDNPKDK

[24] = HEK293T cytotoxicity, dose response, cytotoxicity control for miR-122 modulator project, cell-based, inhibitor set, cherry-pick, set 2 (AID 720697); assay type: functional
[25] = inhibitors of intracellular T. cruzi replication, confirmation, NIH3T3 host cells, beta-gal luminescence (AID 2044); assay type: functional, cell-based;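 further: intracellular parasites grown in NIH/3T3 mouse fibroblasts as host cells; luminescent beta-galactosidase reporter signal from transgenic T. cruzi replicating inside host cells; inhibitors lower the luminescence signal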
[26] = cytotoxicity toward NIH3T3 fibroblasts, dose response, counter-screen, cell-based, ATP luminescence, mouse fibroblasts (AID 2010); assay type: functional;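 further: cells exposed to compound for about 90 hours before reading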
[27] = target: SWI/SNF-related matrix-associated actin-dependent regulator of chromatin subfamily A member 2 (Homo sapiens, UniProt P51531); experiment: Luminescence-based cell-based high throughput dose response assay to identify activators of the function of SWI/SNF related, matrix associated, actin dependent regulator of chromatin, subfamily a, member 2 (SMARCA2, BRM).; assay type: functional
[28] = Counterscreen for activators of the function of SWI/SNF related, matrix associated, actin dependent regulator of chromatin, subfamily a, member 2 (SMARCA2, BRM): Luminescence-based cell-based high throughput dose response assay to identify non-selective compounds using the VP16 reporter assay.; assay type: functional
[29] = target: Large T antigen (Simian virus 40, UniProt P03070); assay type: functional, Betapolyomavirus macacae;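 further: Confirmatory-stage PubChem screen for compounds that inhibit SV40 T antigen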
[30] = target: Mu-type opioid receptor (Homo sapiens, UniProt P35372); assay type: functional, cell-based;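 further: U2OS cells with beta-arrestin recruitment to OPRM1 by beta-gal complementation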
Sequence of Mu-type opioid receptor (P35372 whole entry): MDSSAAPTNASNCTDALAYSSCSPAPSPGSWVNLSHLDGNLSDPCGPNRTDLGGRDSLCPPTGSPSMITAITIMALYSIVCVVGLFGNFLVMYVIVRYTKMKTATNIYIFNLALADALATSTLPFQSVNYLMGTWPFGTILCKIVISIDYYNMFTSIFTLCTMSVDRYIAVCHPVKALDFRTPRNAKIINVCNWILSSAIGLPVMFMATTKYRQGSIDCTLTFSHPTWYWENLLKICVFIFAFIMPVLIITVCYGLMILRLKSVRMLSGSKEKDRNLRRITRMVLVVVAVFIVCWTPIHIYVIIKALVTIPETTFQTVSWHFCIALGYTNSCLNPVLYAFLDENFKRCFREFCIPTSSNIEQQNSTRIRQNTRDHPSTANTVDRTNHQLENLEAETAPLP

Sequence of SWI/SNF-related matrix-associated actin-dependent regulator of chromatin subfamily A member 2 (P51531 whole entry): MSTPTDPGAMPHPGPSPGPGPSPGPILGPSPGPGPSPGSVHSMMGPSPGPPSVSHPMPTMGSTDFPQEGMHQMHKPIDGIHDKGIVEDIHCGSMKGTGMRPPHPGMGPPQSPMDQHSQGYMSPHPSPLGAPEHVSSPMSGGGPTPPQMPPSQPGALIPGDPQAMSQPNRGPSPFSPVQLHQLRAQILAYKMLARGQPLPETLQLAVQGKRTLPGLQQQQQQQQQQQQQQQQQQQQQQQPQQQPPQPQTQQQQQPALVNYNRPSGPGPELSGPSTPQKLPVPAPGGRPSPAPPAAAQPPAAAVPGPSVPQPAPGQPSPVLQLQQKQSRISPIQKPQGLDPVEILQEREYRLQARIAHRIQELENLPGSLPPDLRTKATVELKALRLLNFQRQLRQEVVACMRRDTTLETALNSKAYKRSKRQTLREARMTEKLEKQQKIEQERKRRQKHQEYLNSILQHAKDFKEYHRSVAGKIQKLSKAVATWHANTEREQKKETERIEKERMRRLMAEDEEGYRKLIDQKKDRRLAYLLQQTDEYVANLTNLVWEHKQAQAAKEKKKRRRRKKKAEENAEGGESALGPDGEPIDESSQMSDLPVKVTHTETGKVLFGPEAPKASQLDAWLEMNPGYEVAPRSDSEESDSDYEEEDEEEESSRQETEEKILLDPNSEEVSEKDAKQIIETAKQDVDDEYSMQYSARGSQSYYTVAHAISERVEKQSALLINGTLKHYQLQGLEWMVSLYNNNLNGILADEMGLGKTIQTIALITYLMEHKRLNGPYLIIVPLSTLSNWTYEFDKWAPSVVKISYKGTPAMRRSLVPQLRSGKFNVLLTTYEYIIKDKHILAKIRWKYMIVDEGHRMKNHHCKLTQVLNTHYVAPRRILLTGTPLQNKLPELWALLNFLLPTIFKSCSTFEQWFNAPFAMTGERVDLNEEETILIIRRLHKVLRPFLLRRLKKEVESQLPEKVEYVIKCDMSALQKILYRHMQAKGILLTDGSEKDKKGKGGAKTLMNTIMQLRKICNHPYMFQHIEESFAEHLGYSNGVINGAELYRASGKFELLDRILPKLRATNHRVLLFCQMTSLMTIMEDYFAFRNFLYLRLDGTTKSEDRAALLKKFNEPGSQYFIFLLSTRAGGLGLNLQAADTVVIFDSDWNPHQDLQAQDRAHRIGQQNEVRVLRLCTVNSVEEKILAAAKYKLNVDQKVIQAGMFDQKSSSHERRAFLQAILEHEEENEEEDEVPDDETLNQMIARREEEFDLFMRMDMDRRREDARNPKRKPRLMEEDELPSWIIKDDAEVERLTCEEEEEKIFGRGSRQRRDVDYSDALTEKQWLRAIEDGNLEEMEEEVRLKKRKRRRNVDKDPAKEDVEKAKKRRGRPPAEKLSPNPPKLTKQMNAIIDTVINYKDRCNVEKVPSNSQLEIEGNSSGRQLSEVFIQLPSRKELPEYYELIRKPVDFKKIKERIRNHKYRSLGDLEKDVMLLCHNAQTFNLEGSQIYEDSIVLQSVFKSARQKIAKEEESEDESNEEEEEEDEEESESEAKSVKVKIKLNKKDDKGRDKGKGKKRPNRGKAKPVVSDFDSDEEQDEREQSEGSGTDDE
Sequence of Large T antigen (P03070 whole entry): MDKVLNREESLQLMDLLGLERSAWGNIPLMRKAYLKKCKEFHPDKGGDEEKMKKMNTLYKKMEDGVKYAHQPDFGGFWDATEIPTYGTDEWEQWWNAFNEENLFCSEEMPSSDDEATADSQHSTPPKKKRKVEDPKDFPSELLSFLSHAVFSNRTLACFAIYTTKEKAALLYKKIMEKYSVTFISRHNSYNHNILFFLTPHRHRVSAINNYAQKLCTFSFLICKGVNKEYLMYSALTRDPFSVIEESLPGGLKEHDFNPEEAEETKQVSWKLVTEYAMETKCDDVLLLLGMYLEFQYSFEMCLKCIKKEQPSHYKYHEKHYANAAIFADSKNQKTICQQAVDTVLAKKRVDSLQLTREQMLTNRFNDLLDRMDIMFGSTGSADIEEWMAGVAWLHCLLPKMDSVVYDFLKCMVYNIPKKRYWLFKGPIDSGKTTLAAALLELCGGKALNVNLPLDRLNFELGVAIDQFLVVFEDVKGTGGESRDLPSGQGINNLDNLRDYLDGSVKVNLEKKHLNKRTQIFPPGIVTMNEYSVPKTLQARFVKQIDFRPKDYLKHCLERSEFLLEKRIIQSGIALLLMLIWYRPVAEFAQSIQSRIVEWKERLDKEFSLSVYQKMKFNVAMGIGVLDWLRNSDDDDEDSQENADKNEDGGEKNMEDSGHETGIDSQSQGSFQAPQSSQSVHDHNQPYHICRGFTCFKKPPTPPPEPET
Sequence of Arf-GAP with SH3 domain, ANK repeat and PH domain-containing protein 1 (Q9ULH1 whole entry, the tested form may be a part): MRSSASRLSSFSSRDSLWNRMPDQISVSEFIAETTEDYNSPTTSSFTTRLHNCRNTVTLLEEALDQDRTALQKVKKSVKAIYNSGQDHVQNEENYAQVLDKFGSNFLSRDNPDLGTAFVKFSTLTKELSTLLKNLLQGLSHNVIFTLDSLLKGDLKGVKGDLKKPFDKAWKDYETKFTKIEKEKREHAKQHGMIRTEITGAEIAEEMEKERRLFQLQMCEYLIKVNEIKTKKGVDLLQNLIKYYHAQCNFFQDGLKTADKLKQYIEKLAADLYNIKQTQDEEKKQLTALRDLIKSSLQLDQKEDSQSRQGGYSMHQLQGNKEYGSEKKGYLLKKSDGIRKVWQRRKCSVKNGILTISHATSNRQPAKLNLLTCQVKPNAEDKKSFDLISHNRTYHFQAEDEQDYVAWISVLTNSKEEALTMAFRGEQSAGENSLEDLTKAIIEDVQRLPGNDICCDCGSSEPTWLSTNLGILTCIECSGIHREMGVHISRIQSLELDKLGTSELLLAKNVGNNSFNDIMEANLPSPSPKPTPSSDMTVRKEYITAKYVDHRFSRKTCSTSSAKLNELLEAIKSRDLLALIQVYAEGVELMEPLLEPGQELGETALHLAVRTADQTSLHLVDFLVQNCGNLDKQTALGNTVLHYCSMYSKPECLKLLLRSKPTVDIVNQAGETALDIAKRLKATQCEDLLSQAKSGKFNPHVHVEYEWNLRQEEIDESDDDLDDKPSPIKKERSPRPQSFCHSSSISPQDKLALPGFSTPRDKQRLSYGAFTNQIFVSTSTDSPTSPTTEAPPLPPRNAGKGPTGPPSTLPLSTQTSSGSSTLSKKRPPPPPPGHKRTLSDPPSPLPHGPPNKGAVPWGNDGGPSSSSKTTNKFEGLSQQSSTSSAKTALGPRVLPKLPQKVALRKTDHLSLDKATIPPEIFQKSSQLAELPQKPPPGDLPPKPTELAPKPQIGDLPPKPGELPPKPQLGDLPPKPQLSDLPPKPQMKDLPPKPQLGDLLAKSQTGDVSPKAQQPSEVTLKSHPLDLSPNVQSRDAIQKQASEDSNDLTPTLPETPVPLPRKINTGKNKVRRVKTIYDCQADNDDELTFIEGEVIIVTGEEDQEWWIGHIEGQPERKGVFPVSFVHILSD
Sequence of ADP-ribosylation factor GTPase-activating protein 1 (Q62848 whole entry): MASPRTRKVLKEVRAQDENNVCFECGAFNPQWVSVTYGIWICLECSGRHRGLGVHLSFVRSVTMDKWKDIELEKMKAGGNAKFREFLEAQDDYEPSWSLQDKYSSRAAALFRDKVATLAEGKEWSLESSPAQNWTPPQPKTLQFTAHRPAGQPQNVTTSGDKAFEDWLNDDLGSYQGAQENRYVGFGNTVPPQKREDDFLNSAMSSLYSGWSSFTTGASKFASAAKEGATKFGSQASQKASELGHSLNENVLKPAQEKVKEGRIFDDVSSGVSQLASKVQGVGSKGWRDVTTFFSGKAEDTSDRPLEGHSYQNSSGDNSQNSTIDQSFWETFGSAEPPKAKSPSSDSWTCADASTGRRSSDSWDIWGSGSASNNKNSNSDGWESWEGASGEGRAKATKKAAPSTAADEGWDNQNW

SMILES: COc1ccc(/C=C2\CCC/C(=C\c3ccc(OC)c(OC)c3OC)C2=O)c(OC)c1OC
- IC50 [1]: 4.04 µM (active)
- IC50 [2]: 7.33 µM (active)
- EC50 [3]: > 53 µM (inactive)

SMILES: COc1ccc(C(=O)NCCC2=CCCCC2)cc1
- EC50 [4]: 8.69 µM (inconclusive)
- EC50 [5]: 8.58 µM (active)
- IC50 [6]: > 67.5 µM (inactive)
- IC50 [7]: > 0.278 µM (active)

SMILES: NC(=O)c1ccc(/N=C2\C(=O)Nc3ccc([N+](=O)[O-])cc32)cc1
- IC50 [8]: 4.25 µM (active)
- IC50 [9]: 3.98 µM (active)
- IC50 [10]: 27.5 µM (active)

SMILES: CN(C)[C@@H]1C(=O)C(C(N)=O)=C(O)[C@@]2(O)C(O)=C3C(=O)c4c(O)cccc4[C@@](C)(O)C3[C@H](O)C12 (some centres not stated)
- AC50 [11]: 9.92 µM (active)
- AC50 [12]: < 0.3 µM (active)
- AC50 [13]: 75.2 µM (active)
- EC50 [14]: 0.277 µM (active)
- EC50 [15]: 0.088 µM (active)
- EC50 [16]: 20.5 µM (active)
- EC50 [17]: 54.1 µM (active)

SMILES: O=C(/C=C\c1cn(-c2ccccc2)nc1-c1ccccc1)Nc1nccs1
- IC50 [18]: 32.1 µM (inactive)
- EC50 [19]: 7.09 µM (active)
- EC50 [20]: 7.96 µM (active)
- IC50 [21]: 26.2 µM (inactive)

SMILES: C/C(=N\Nc1cc(N2CCCCC2)nc(C)n1)c1ccc(Br)cc1
- AC50 [22]: 5.52 µM (active)
- EC50 [14]: > 50 µM (not active)
- EC50 [15]: 6.7 µM (active)
- EC50 [23]: 46.7 µM (inconclusive)
- AC50 [24]: 5.41 µM (active)
- EC50 [25]: 0.7 µM (active)
- EC50 [26]: > 60 µM (not active)

SMILES: CCc1noc(C)c1C(=O)N1CCS/C1=N\c1cccc(Cl)c1C
- IC50 [1]: < 0.368 µM (active)
- IC50 [2]: > 20 µM (inactive)
- EC50 [3]: > 53 µM (inactive)

SMILES: O=C(N/N=C/c1ccc2c(c1)OCO2)c1ccccn1
- IC50 [6]: > 67.5 µM (inactive)
- IC50 [7]: > 67.5 µM (inactive)

SMILES: O=C1C(Sc2ccccc2)=C[C@@]2(O)CC[C@@H](O)[C@]1(Sc1ccccc1)[C@H]2O
- EC50 [27]: > 91.3 µM (inactive)
- EC50 [28]: > 91.3 µM (inactive)

SMILES: NCCc1c[nH]c2ccc(O)cc12 [SEROTONIN HYDROCHLORIDE]
- IC50 [29]: 41.3 µM (active)
- EC50 [30]: 92.4 µM (inactive)
